{
  "source": "patent US20080132413A1",
  "about": "“Methods for the Improvement of Plant Tolerance Towards Glyphosate” (Bayer Cropscience AG, priority 2004, published 2008)",
  "origin": "cited, not measured here",
  "test_system": "glyphosate-resistant cotton (Roundup Ready Cotton)",
  "data": [
    {"smiles": "O=[N+]([O-])/N=C1\\NCCN1Cc1ccc(Cl)nc1", "note": "[imidacloprid]", "values": [
      {"measurement": "increase in buds compared to a control not treated with imidacloprid", "setting": "glyphosate treatment at the 4 leaf stage, after 45 days", "value": 18, "unit": "%"},
      {"measurement": "sum of the counts of buds and bolls versus untreated control", "setting": "glyphosate treatment at the 4 leaf stage, after 62 days", "value": "matched that of the untreated control"},
      {"measurement": "minus of buds compared to the control not treated with imidacloprid", "setting": "glyphosate treatment at the 6 leaf stage, after 40 days", "value": 14, "unit": "%"},
      {"measurement": "sum of the counts of buds and bolls (yield) greater than that of the untreated control", "setting": "glyphosate treatment at the 6 leaf stage, after 57 days", "value": "about 14%"}
    ]}
  ]
}
